Measured values reported in the NIST ThermoML archive (doi:10.1016/j.jct.2006.08.009).

Assay: mn = molality of the nth substance listed, in mol/kg
Settings: 350 kPa, Liquid; for apparent molar heat capacity: Extra sensitive DSC

OC[C@@H](O)[C@@H](O)CO [meso-1,2,3,4-butanetetrol] + O
Settings	apparent molar heat capacity [J/K/mol]	mass density [kg/m3]
318.15 K, m1 = 0.4998	–	1006.84
318.15 K, m1 = 1	–	1021.96
318.15 K, m1 = 2.002	–	1048.89
318.15 K, m1 = 3.003	–	1071.67
323.15 K, m1 = 0.0201	318	–
323.15 K, m1 = 0.05	338	–
323.15 K, m1 = 0.0999	334.4	–
323.15 K, m1 = 0.2501	332.7	–
323.15 K, m1 = 0.4998	331.6	–
323.15 K, m1 = 1	330.1	–
323.15 K, m1 = 2.002	324.5	–
323.15 K, m1 = 3.003	325.24	–
328.15 K, m1 = 0.0201	322	986.49
328.15 K, m1 = 0.05	341	987.47
328.15 K, m1 = 0.0999	337.8	988.94
328.15 K, m1 = 0.2501	336	994.21
328.15 K, m1 = 0.4998	335	1002.15
328.15 K, m1 = 1	333.5	1017.15
328.15 K, m1 = 2.002	328	1043.78
328.15 K, m1 = 3.003	328.66	1066.4
333.15 K, m1 = 0.0201	325	–
333.15 K, m1 = 0.05	344	–
333.15 K, m1 = 0.0999	341	–
333.15 K, m1 = 0.2501	339.2	–
333.15 K, m1 = 0.4998	338.1	–
333.15 K, m1 = 1	336.7	–
333.15 K, m1 = 2.002	331.2	–
333.15 K, m1 = 3.003	331.8	–
338.15 K, m1 = 0.0201	328	981.39
338.15 K, m1 = 0.05	347	982.33
338.15 K, m1 = 0.0999	343.9	983.83
338.15 K, m1 = 0.2501	342	988.99
338.15 K, m1 = 0.4998	340.9	996.87
338.15 K, m1 = 1	339.5	1011.73
338.15 K, m1 = 2.002	334.2	1038.15
338.15 K, m1 = 3.003	334.7	1060.56
343.15 K, m1 = 0.0201	330	–
343.15 K, m1 = 0.05	350	–
343.15 K, m1 = 0.0999	346.4	–
343.15 K, m1 = 0.2501	344.5	–
343.15 K, m1 = 0.4998	343.5	–
343.15 K, m1 = 1	342.1	–
343.15 K, m1 = 2.002	336.9	–
343.15 K, m1 = 3.003	337.33	–
348.15 K, m1 = 0.0201	332	975.69
348.15 K, m1 = 0.05	352	976.65
348.15 K, m1 = 0.0999	348.7	978.12
348.15 K, m1 = 0.2501	346.8	983.23
348.15 K, m1 = 0.4998	345.8	991.14
348.15 K, m1 = 1	344.4	1005.88
348.15 K, m1 = 2.002	339.4	1032.07
348.15 K, m1 = 3.003	339.73	1054.35
353.15 K, m1 = 0.0201	334	–
353.15 K, m1 = 0.05	354	–
353.15 K, m1 = 0.0999	350.7	–
353.15 K, m1 = 0.2501	348.9	–
353.15 K, m1 = 0.4998	347.8	–
353.15 K, m1 = 1	346.5	–
353.15 K, m1 = 2.002	341.77	–
353.15 K, m1 = 3.003	341.88	–
358.15 K, m1 = 0.0201	336	969.51
358.15 K, m1 = 0.05	356	970.13
358.15 K, m1 = 0.0999	352.4	971.92
358.15 K, m1 = 0.2501	350.5	976.99
358.15 K, m1 = 0.4998	349.5	984.82
358.15 K, m1 = 1	348.2	999.52
358.15 K, m1 = 2.002	343.88	1025.52
358.15 K, m1 = 3.003	343.6	1047.59
363.15 K, m1 = 0.0201	337	–
363.15 K, m1 = 0.05	357	–
363.15 K, m1 = 0.0999	353	–
363.15 K, m1 = 0.2501	351.1	–
363.15 K, m1 = 0.4998	350	–
363.15 K, m1 = 1	348.7	–
363.15 K, m1 = 2.002	345.8	–
363.15 K, m1 = 3.003	344.06	–
368.15 K, m1 = 0.0201	–	962.63
368.15 K, m1 = 0.05	–	963.59
368.15 K, m1 = 0.0999	–	965.08
368.15 K, m1 = 0.2501	–	970.07
368.15 K, m1 = 0.4998	–	978.02
368.15 K, m1 = 1	–	992.7
368.15 K, m1 = 2.002	–	1018.73
368.15 K, m1 = 3.003	–	1041.19
